Test results: a melting point compilation (Tetko et al.; mined from patent text by program, amines drawn as free bases though some values may be those of a salt)

Compared with `Cn1cncc1C(O)(c1ccc(Cl)cc1)c1ccc2c(c1)c(CCc1ccc(Cl)s1)cc(=O)n2C` (centres undefined), `COc1cc(CNC(=O)c2cc3c(=O)n(Cc4ccc([N+](=O)[O-])nc4)c(=O)n(C)c3s2)ccn1` is higher in melting point: 128 °C for the first, 200 to 207 °C for the second.

Compared with `CN1C(=O)N(CC(COc2ccc(-c3ccc(C#N)cc3)cc2)N(O)C=O)C(=O)C1(C)C` (centres undefined), `O=C1c2ccccc2C(=O)N1Cc1ccc(I)cc1` is higher in melting point: 65 to 67 °C for the first, 138 to 139 °C for the second.

First: CC(=NNC(N)=O)c1ccc(Nc2nccc(-c3cccnc3)n2)cc1
Second: CC(=NNc1ccc(C2=NNC(=O)CO2)cc1)c1ccncc1
The melting point of the first is higher: 256 to 258 °C for the first, 195 °C for the second.

First: CN1C(=O)c2cc(N/C(=C3\C(=O)Nc4ccc([N+](=O)[O-])cc43)c3ccccc3)ccc2C(C)(C)C1=O
Second: O=C(Cc1ccccc1)NC1C(=O)N2CC(C(=O)OCc3ccc([N+](=O)[O-])cc3)SC12 (centres undefined)
The melting point of the first is lower: 169 to 171 °C for the first, 181 to 183 °C for the second.

First: Cc1ccc(S(=O)(=O)OC2CCc3[nH]c4ccccc4c3C2)cc1 (centres undefined)
Second: Cc1ccc(S(=O)(=O)OCC2Cc3cc(Cl)cc(C(C)(C)C)c3O2)cc1 (centres undefined)
The melting point of the first is higher: 148 to 151 °C for the first, 74 to 77 °C for the second.

First: CN(C)C=NS(=O)(=O)c1cc2cnc(CO)cc2o1
Second: Cc1cc(O)c(S(=O)(=O)Cc2ccc(F)cc2)c(=O)o1
The melting point of the first is lower: 161 to 163 °C for the first, 180 to 182 °C for the second.

First: CCc1cccc(CC)c1NC(=S)NC(C)C
Second: Nc1cscc1NC(=S)Nc1c(Cl)cccc1Cl
The melting point of the first is lower: 108 to 110 °C for the first, 165 °C for the second.

First: CCCc1c(OCCCCCC(=O)c2cc(C)c(O)c(O)c2C)ccc(C(=O)O)c1O
Second: CCCCn1cc(C(=O)OCC)c(=O)c2oc3ccc(Cl)cc3c(=O)c21
The melting point of the first is lower: 121 to 125 °C for the first, 226 to 228 °C for the second.

Compared with `CCCCCN(C(=O)c1cnc(N2CC(C)(C)NC2=O)nc1N)c1cccc(C(F)(F)F)c1`, `CCN(C(C)=O)c1cccc(-c2ccc3nnc(N)n3n2)c1` is higher in melting point: 167 to 168 °C for the first, 192 to 193 °C for the second.

Compared with `CCOC(=O)CNC(=S)Cc1cnc(C)c(O)c1CO`, `CCOC(=O)CC[C@H](NC(=O)c1ccc([N+](=O)[O-])cc1Cl)C(=O)OCC` is lower in melting point: 147 to 149 °C for the first, 95 to 96 °C for the second.

First: CN(C)CCc1cn(Cc2ccccc2)c2ccc(C(C#N)S(=O)(=O)N(C)C(c3ccccc3)c3ccccc3)cc12 (centres undefined)
Second: CC(C)c1nc2cc(COc3ccc(CC4OC(=O)N(C(c5ccccc5)(c5ccccc5)c5ccccc5)C4=O)cc3)ccc2o1 (centres undefined)
The melting point of the first is lower: 98 to 100 °C for the first, 123 to 125 °C for the second.

First: CNC(=O)C1CCC(c2csc(NC(=N)N)n2)C1 (centres undefined)
Second: Cc1nc2cccc(OCC(C)(C)C(=O)NC3CC3)c2c(N)c1C(=O)O
The melting point of the first is lower: 216 to 218 °C for the first, 227 to 229 °C for the second.

Compared with `COC(=O)C(=O)c1ccccc1Oc1cc(Oc2ccccc2C#N)ncn1`, `CC(=O)Oc1ccc(Cn2c(-c3ccccc3)nc(Cl)c2CC(=O)O)cc1C` is higher in melting point: 96 to 97 °C for the first, 200 to 203 °C for the second.

Compared with `CCCN(CCC)CC(=O)OC1CC2(C)C(C#N)CCC2C2CCC3CC(O)CCC3(C)C12` (centres undefined), `CC12CCC(S(=O)(=O)C(F)(F)F)=CC1=CCC1C2CCC2(C)C(C(=O)O)CCC12` (centres undefined) is higher in melting point: 114 to 116 °C for the first, 182 °C for the second.

Compared with `CCCCCCCNC(=O)Nc1ccc(OCC)cc1C(=O)NCC1CCN(C(c2ccccc2)c2ccccc2)CC1`, `CN(C(=O)N[C@@H](Cc1ccc(NC(=O)c2c(Cl)cccc2Cl)cc1)C(=O)O)c1ccccc1C(=O)NCC1CCCCC1` is higher in melting point: 188 to 189 °C for the first, 201 °C for the second.

First: CC(Cl)C(=O)NCCO (centres undefined)
Second: COc1cc(OC)nc(NC(=O)CC(F)=C(F)F)n1
The melting point of the first is lower: 64 °C for the first, 127 to 130 °C for the second.

First: COc1cc(OC)cc(N2CCN(C(=S)Nc3nc4ccccc4nc3OC)CC2)c1
Second: COc1cc(N2CCOCC2)ccc1Nc1nc(Nc2ccc3c(c2OC)CCCC(=O)N3C)ncc1Cl
The melting point of the first is lower: 141 to 143 °C for the first, 197 to 199 °C for the second.

First: Cc1cc(C2=NNC(=O)CC2)ccc1CCCCN
Second: CCc1nccc2[nH]c(=O)ccc12
The melting point of the first is lower: 145 to 147 °C for the first, 186 to 188 °C for the second.

Compared with `COc1cc2c(cc1[N+](=O)[O-])NC(=O)CN(C(=O)OCc1ccccc1)C2`, `COc1cc2c(cc1OCc1ccccc1)CCN(Cc1cc(OC)c(OC)c(OC)c1)C2=O` is lower in melting point: 191 °C for the first, 136 to 137 °C for the second.

Compared with `CCOC(=O)C1=C(N(C)C)N=C(C)C(C(=O)OC)C1c1cccc([N+](=O)[O-])c1` (centres undefined), `CCN1C(=O)C2CC(c3ccc([N+](=O)[O-])cc3)(C2)C1=O` is higher in melting point: 95 °C for the first, 175 to 179 °C for the second.

First: C[C@H](NC(=O)COCCNC(=O)C12CC3CC(CC(C3)C1)C2)C(=O)N[C@H](CCC(=O)OCc1ccccc1)C(N)=O
Second: CN1C(=O)C(NC(=O)Nc2ccccc2)C(=O)N(CC23CC4CC(CC(C4)C2)C3)c2ccccc21 (single isomer, unassigned; (-))
The melting point of the first is lower: 57 to 64 °C for the first, 173 to 178 °C for the second.

Compared with `C[C@H](Cc1ccc2oc(C(=O)O)cc2c1)NC[C@H](O)c1csc(C(F)(F)F)n1`, `Cn1cc(-c2cccc(C(F)(F)F)c2)c(=O)c(-c2cccs2)c1` is higher in melting point: 168 to 171 °C for the first, 185 to 186 °C for the second.

Compared with `N#CCCC(C#N)CSc1ccc(Cl)c(Cl)c1` (centres undefined), `Cc1cc(=O)n(-c2cccc(Cl)c2)n1C` is higher in melting point: 53 to 55 °C for the first, 98 to 100 °C for the second.

First: CC=CCC1C(=O)c2cc(OC)c(Cl)cc2C1(C)C (racemic)
Second: COc1cc(I)c(C=O)cc1OC
The melting point of the first is lower: 86 °C for the first, 139 to 141 °C for the second.

First: CNC(=NCCCSCc1[nH]cnc1C)NC#N
Second: NCCCNC(=O)c1ccc(-c2ccc3nnn(Cc4ccc5ncccc5c4)c3n2)cc1F
The melting point of the first is lower: 156 to 158 °C for the first, 292 to 294 °C for the second.

First: CCCn1c(=O)c(-c2ccccc2)c2n(c1=O)CCCS2
Second: COC(=O)C1CCc2sc3ccccc3c2C1=O (centres undefined)
The melting point of the first is lower: 132 to 133 °C for the first, 158 to 160 °C for the second.

First: CC(=O)c1cc(C(=O)O)c(O)c([N+](=O)[O-])c1
Second: CC(=O)C(=NNc1ccccc1)C(N)=O
The melting point of the first is higher: 192 to 193 °C for the first, 146 to 147 °C for the second.

Compared with `Cc1nc(N)n(C)c(=O)c1CCN1CCC(Cc2nc3ccccc3n2Cc2ccc(F)cc2)CC1`, `c1ccc(-c2cnc(NC3CCC(CCN4CCN(c5ccccc5)CC4)CC3)nc2)cc1` (centres undefined) is higher in melting point: 147 °C for the first, 170 °C for the second.

First: O=C(Nc1cc2cccnc2cc1N1CCCCC1)c1csc2cncnc12
Second: CC1(C)CCC(=O)Nc2cc(Nc3ncc(Cl)c(Nc4ccc(N5CCOCC5)cc4OCCC#N)n3)ccc21
The melting point of the first is higher: > 300 °C for the first, 150 to 156 °C for the second.

First: CCn1ncc2cc3c(nc21)CCc1ccccc1C3(O)CCCN(C)C (centres undefined)
Second: NC(=O)c1ccc2nc3c(c(=O)n2c1)CCC3=Cc1ccccc1
The melting point of the first is lower: 100 to 102 °C for the first, 350 to 357 °C for the second.

Compared with `COc1cc(O)c(Br)c2cc(-c3ccc(O)cc3)oc12`, `COc1ccc(-c2c(CBr)c3ccc(OC)cc3oc2=O)c(OC(C)=O)c1` is lower in melting point: 170 °C for the first, 132 to 133 °C for the second.

Compared with `NS(=O)(=O)OCCCCCOS(N)(=O)=O`, `NS(=O)(=O)c1cc(C(=O)O)cc(S(=O)(=O)Cc2ccccc2)c1Cl` is higher in melting point: 96.5 to 99 °C for the first, 236 to 237 °C for the second.

First: CNC(=S)NS(=O)(=O)c1cc2c(cc1OC)OCC(NC(=O)c1cc(F)ccc1OC)C2 (centres undefined)
Second: NS(=O)(=O)c1ccc2c(c1)C(O)CCC2 (centres undefined)
The melting point of the first is higher: 221 to 222 °C for the first, 137 to 138 °C for the second.

First: Nc1ncnn1C(=S)NC1CCCCC1
Second: Cc1nc2cc(Cl)c(C)c(Cl)c2o1
The melting point of the first is higher: 168 to 170 °C for the first, 80 to 82 °C for the second.

In the case of `CCOP(=O)(OCC)C(C)(C)CC1(C)NC(=O)NC1=O` (centres undefined), the melting point is reported as 142 to 146 °C.
